Test [1] relates to leukotriene pathway in human whole blood (LTB4 levels). The test is described as follows: Human whole blood assay (A23187-stimulated LTB4). Particulars: Homo sapiens, read-out: LTB4 IC50 1:1. The test is classed as cell-based. The method, boiled down: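 Single-replicate data from at least one healthy donor: compound pre-incubated 15 min at 37° Celsius in 1:1 RPMI-diluted heparinised blood, followed by 30 min calcium ionophore A23187 (7 μg/mL) challenge at 37° Celsius. LTB4 in plasma quantified by kit; IC50 via 4-parameter equation.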

The target of test [2] is human FLAP (Homo sapiens (Human), UniProt P20292). The test is described as follows: FLAP binding assay (HTRF format). The gist of the method:
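HTRF ratio read-out; two independent plates, samples in duplicate on each, values averaged across plates.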
A general note: In TR-FRET formats the signal depends on donor and acceptor labels being close together.

Setting [3] is: human whole blood diluted 1:1, A23187-stimulated.
Setting [4] is: human whole blood diluted 1:1 in RPMI, A23187-stimulated LTB4.
Where [5] appears, read: human FLAP wild type, HTRF format, average of two plates, duplicates.

Where a name gives a salt, the structure may show the parent alone. Read-outs that look alike come from different tables or passages of the source.

By IC50 is commonly meant the midpoint of a concentration-inhibition curve. The term Ki denotes the equilibrium dissociation constant of an inhibitor or competing ligand from its target.

human FLAP, sequence (P20292 whole entry): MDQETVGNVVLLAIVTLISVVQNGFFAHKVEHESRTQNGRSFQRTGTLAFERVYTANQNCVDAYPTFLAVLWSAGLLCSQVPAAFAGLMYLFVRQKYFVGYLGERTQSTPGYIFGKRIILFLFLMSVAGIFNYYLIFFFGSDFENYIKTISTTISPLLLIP

As to `CC(C)(C)NS(=O)(=O)c1ccccc1-c1ccc(-c2cnc(N)cn2)cc1` [Example 571, 4′-(5-Aminopyrazin-2-yl)-N-tert-butylbiphenyl-2-sulfonamide], the IC50 in test [1] (setting [3]) was 91 nM. The same compound registered a Ki in test [2] (wild type FLAP, HTRF format) of 2 nM. Regarding `CNS(=O)(=O)c1ccccc1-c1ccc(-c2cnc(N)c(C)n2)c(F)c1` [Example 449, 4′-(5-Amino-6-methylpyrazin-2-yl)-3′-fluoro-N-methylbiphenyl-2-sulfonamide], the IC50 in test [1] (setting [3]) amounted to 79 nM. The compound further gave a Ki in test [2] (wild type FLAP, HTRF format) of 22 nM. `Nc1cnc(-c2ccc(-c3ccccc3S(=O)(=O)N3CCCC(CCO)C3)cc2F)cn1` (racemic) [Example 71, racemic-2-(1-{[4′-(5-Aminopyrazin-2-yl)-3′-fluorobiphenyl-2-yl]sulfonyl}piperidin-3-yl)ethanol]: the IC50 in test [1] (setting [4]) was found to be 23 nM. In test [2] (setting [5]), this compound gave a Ki of 2 nM. In the case of `N#Cc1nc(-c2ccc(-c3ccccc3Oc3nccc(N)n3)cc2F)cnc1N` [Example 695, 3-Amino-6-{2′-[(4-aminopyrimidin-2-yl)oxy]-3-fluorobiphehenyl-4-yl}pyrazine-2-carbonitrile trifluoroacetic acid salt], the half-maximal inhibitory concentration (IC50) in test [1] (setting [3]) was 336 nM. In addition, the inhibition constant Ki in test [2] (wild type FLAP, HTRF format) stood at 8.4 nM. The like results for `COc1cc(-c2ccccc2S(=O)(=O)NC(C)(C)C)ccc1-c1cnc(N)cn1` [Example 570, 4′-(5-Aminopyrazin-2-yl)-N-tert-butyl-3′-methoxybiphenyl-2-sulfonamide] were, in that order, 1180 nM and 35 nM. The like results for `Cc1nccc(Oc2ccccc2-c2ccc(-c3cnc(N)cn3)c(F)c2)n1` [Example 541, 5-{3-Fluoro-2′-[(2-methylpyrimidin-4-yl)oxy]biphenyl-4-yl}pyrazin-2-amine] were, in that order, 66 nM and 12 nM.

Turning to `Nc1cnc(-c2ccc(-c3cccnc3S(=O)(=O)C3CCCC3)cc2F)cn1` [Example 810, 5-(4-(2-(Cyclopentylsulfonyl)pyridin-3-yl)-2-fluorophenyl)pyrazin-2-amine hydrochloride], the IC50 in test [1] (setting [3]) was determined as 5.64 nM. In test [2] (wild type FLAP, HTRF format), the affinity corresponds to a Ki of 0.6 nM. In the case of `C[C@H](NC(=O)c1cc(C(F)(F)F)ccc1-c1ccc(-c2cnc(N)nc2)c(F)c1)C(F)(F)F` [Example 788, 2-[4-(2-Aminopyrimidin-5-yl)-3-fluoro-phenyl]-5-(trifluoromethyl)-N-[(1S)-2,2,2-trifluoro-1-methyl-ethyl]benzamide], in test [1] (setting [3]), the half-inhibitory concentration (IC50) came to 272 nM. Moreover, in test [2] (wild type FLAP, HTRF format), affinity was put at a Ki of 17.8 nM. As to `Nc1cnc(-c2ccc(-c3ccccc3S(=O)(=O)N3CC[C@@H](O)C3)cc2F)cn1` [Example 185, (3R)-1-{[4′-(5-Aminopyrazin-2-yl)-3′-fluorobiphenyl-2-yl]sulfonyl}pyrrolidin-3-ol trifluoroacetic acid salt], the IC50 in test [1] (setting [4]) was 51 nM. Moreover, in test [2] (setting [5]), the affinity corresponds to a Ki of 10 nM. Consider `Nc1cnc(-c2ccc(-c3ccc(C(F)(F)F)cc3CN3CCC(N)CC3)cc2F)cn1` [Example 606, 5-{2′-[(4-Aminopiperidin-1-yl)methyl]-3-fluoro-4′-(trifluoromethyl)biphenyl-4-yl}pyrazin-2-amine], for which, in test [1] (setting [3]), the half-maximal inhibitory concentration (IC50) was found to be 2620 nM. This compound also showed an inhibition constant (Ki) in test [2] (wild type FLAP, HTRF format) of 46.3 nM. On to `C[C@H](NS(=O)(=O)c1ccccc1-c1ccc(-c2cnc(N)nc2)c(F)c1)C(=O)OC(C)(C)C` [Example 307, tert-Butyl N-{[4′-(2-aminopyrimidin-5-yl)-3′-fluorobiphenyl-2-yl]sulfonyl}-L-alaninate], for which the IC50 in test [1] (setting [4]) was found to be 416 nM. This compound showed a Ki in test [2] (setting [5]) of 4 nM.

Regarding `Nc1cnc(-c2ccc(-c3ccccc3S(=O)(=O)N[C@H](CO)c3ccccc3)cc2F)cn1` [Example 81, 4′-(5-Aminopyrazin-2-yl)-3′-fluoro-N-[(1S)-2-hydroxy-1-phenylethyl]biphenyl-2-sulfonamide], the IC50 in test [1] (setting [4]) was 152 nM. The same compound registered a Ki in test [2] (setting [5]) of 6 nM.

For `COc1cnc(Oc2ccccc2-c2ccc(-c3cnc(N)nc3)c(F)c2)nc1` [Example 550, 5-{3-Fluoro-2′-[(5-methoxypyrimidin-2-yl)oxy]biphenyl-4-yl}pyrimidin-2-amine], the IC50 in test [1] (setting [3]) stood at 16 nM. This compound also registered an inhibitory constant (Ki) in test [2] (wild type FLAP, HTRF format) of 2 nM.

As to `CC(C)S(=O)(=O)Cc1ccccc1-c1ccc(-c2cnc(N)cn2)c(F)c1` [Example 751, 5-(3-Fluoro-2′-{[(1-methylethyl)sulfonyl]methyl}biphenyl-4-yl)pyrazin-2-amine], the IC50 in test [1] (setting [3]) is 1060 nM. In test [2] (wild type FLAP, HTRF format), this compound returned a Ki of 80.9 nM. Regarding `Nc1cnc(-c2ccc(-c3ccccc3CSc3cc(N)ncn3)cc2F)cn1` [Example 238, 6-(((4′-(5-Aminopyrazin-2-yl)-3′-fluoro-[1,1′-biphenyl]-2-yl)methyl)thio)pyrimidin-4-amine hydrochloride], the half-maximal inhibitory concentration (IC50) in test [1] (setting [4]) was 38 nM. Moreover, the Ki in test [2] (setting [5]) was 5 nM. Regarding `CC(C)(C)NS(=O)(=O)c1ccccc1-c1ccc(-c2cnc(N)c(N)n2)c(F)c1` [Example 428, N-tert-Butyl-4′-(5,6-diaminopyrazin-2-yl)-3′-fluorobiphenyl-2-sulfonamide], the IC50 in test [1] (setting [3]) was found to be 4 nM. This compound also showed a Ki in test [2] (wild type FLAP, HTRF format) of 4 nM. Regarding `N#CCCNS(=O)(=O)c1ccccc1-c1ccc(-c2cnc(N)nc2)c(F)c1` [Example 250, 4′-(2-Aminopyrimidin-5-yl)-N-(2-cyanoethyl)-3′-fluorobiphenyl-2-sulfonamide], in test [1] (setting [4]), the IC50 was 77 nM. This compound showed a Ki in test [2] (setting [5]) of 38 nM.

Turning to `Nc1ncc(-c2ccc(-c3ccccc3Oc3ccnc(N)n3)cc2F)cn1` [Example 534, 4-{[4′-(2-Aminopyrimidin-5-yl)-3′-fluorobiphenyl-2-yl]oxy}pyrimidin-2-amine], in test [1] (setting [3]), the 50% inhibitory concentration (IC50) turned out to be 69 nM. The compound further yielded a Ki in test [2] (wild type FLAP, HTRF format) of 12 nM.

Take `Nc1cnc(-c2ccc(-c3ccc(C(F)(F)F)cc3C(=O)N3CCS(=O)(=O)CC3)cc2F)cn1` [Example 757, 5-{2′-[(1,1-Dioxidothiomorpholin-4-yl)carbonyl]-3-fluoro-4′-(trifluoromethyl)biphenyl-4-yl}pyrazin-2-amine]: in test [1] (setting [3]), the IC50 turned out to be 16.2 nM. The affinity in test [2] (wild type FLAP, HTRF format), expressed as Ki, was 5.2 nM. As for `Nc1ncc(-c2ccc(-c3ccc(C(F)(F)F)cc3Oc3ccnc(N)n3)cn2)cn1` [Example 565, 4-{2-[6-(2-Aminopyrimidin-5-yl)pyridin-3-yl]-5-(trifluoromethyl)phenoxy}pyrimidin-2-amine], the half-inhibitory concentration (IC50) in test [1] (setting [3]) was 984 nM. In test [2] (wild type FLAP, HTRF format), this compound registered a Ki of 81 nM.

For the compound `Nc1ncc(-c2ccc(-c3ccccc3Sc3ncccn3)cc2F)cn1` [Example 332, 5-[3-Fluoro-2′-(pyrimidin-2-ylsulfanyl)biphenyl-4-yl]pyrimidin-2-amine hydrochloride], in test [1] (setting [4]), the half-maximal inhibitory concentration (IC50) came to 125 nM. In test [2] (setting [5]), the affinity corresponds to a Ki of 65 nM. Take `Nc1cnc(-c2ccc(-c3cccnc3S(=O)(=O)C3CCOCC3)cc2F)cn1` [Example 830, 5-{2-Fluoro-4-[2-(tetrahydro-2H-pyran-4-ylsulfonyl)pyridin-3-yl]phenyl}pyrazin-2-amine hydrochloride]: the concentration for half-maximal inhibition (IC50) in test [1] (setting [3]) came to 5.55 nM. In test [2] (wild type FLAP, HTRF format), the affinity, expressed as Ki, was 2.9 nM. Consider `Nc1cc(Oc2ccccc2-c2ccc(-c3cnc(N)nc3)c(F)c2)ncn1` [Example 536, 5-{2′-[(6-Aminopyrimidin-4-yl)oxy]-3-fluorobiphenyl-4-yl}pyrimidin-2-amine], for which, in test [1] (setting [3]), the half-inhibitory concentration (IC50) came out at 68 nM. This compound came in with a Ki in test [2] (wild type FLAP, HTRF format) of 21 nM. For `N#Cc1ncc(-c2ccccc2-c2ccc(-c3cnc(N)cn3)c(F)c2)cn1` [Example 849, 5-[4′-(5-Aminopyrazin-2-yl)-3′-fluorobiphenyl-2-yl]pyrimidine-2-carbonitrile], the IC50 in test [1] (setting [3]) was > 1000 nM. Moreover, the affinity in test [2] (wild type FLAP, HTRF format) corresponds to a Ki of 35.6 nM. On to `Nc1cnc(-c2ccc(-c3ccccc3S(=O)(=O)N[C@@H](CO)c3ccccc3)cc2F)cn1` [Example 82, 4′-(5-Aminopyrazin-2-yl)-3′-fluoro-N-[(1R)-2-hydroxy-1-phenylethyl]biphenyl-2-sulfonamide], for which the IC50 in test [1] (setting [4]) was determined as 18 nM. In addition, the affinity in test [2] (setting [5]) corresponds to a Ki of 1 nM. In the case of `Nc1cnc(-c2ccc(-c3cccnc3S(=O)(=O)C3CCC3)cc2F)cn1` [Example 806, 5-(4-(2-(Cyclobutylsulfonyl)pyridin-3-yl)-2-fluorophenyl)pyrazin-2-amine hydrochloride], the half-maximal inhibitory concentration (IC50) in test [1] (setting [3]) came to 48.4 nM. In test [2] (wild type FLAP, HTRF format), the affinity corresponds to a Ki of 1.8 nM. Consider `CC(C)(NS(=O)(=O)c1ccccc1-c1ccc(-c2cnc(N)cn2)c(F)c1)C(F)(F)F` [Example 13, 4′-(5-Aminopyrazin-2-yl)-3′-fluoro-N-(2,2,2-trifluoro-1,1-dimethylethyl)biphenyl-2-sulfonamide], for which the IC50 in test [1] (setting [4]) turned out to be 18 nM. Also, in test [2] (read-out: FLAP Binding wild type HTRF Ki), the inhibition constant (Ki) stood at 1 nM. With `C[C@H](O)CNS(=O)(=O)c1ccccc1-c1ccc(-c2cnc(N)nc2)c(F)c1` [Example 279, 4′-(2-Aminopyrimidin-5-yl)-3′-fluoro-N-[(2S)-2-hydroxypropyl]biphenyl-2-sulfonamide trifluoroacetic acid salt], the IC50 in test [1] (setting [4]) was 149 nM. The Ki in test [2] (setting [5]) was 70 nM.

In the case of `N#Cc1nc(N)cnc1-c1ccc(-c2ccc(C(F)(F)F)cc2S(=O)(=O)NCCO)cc1F` [Example 712, 4′-(5-Amino-3-cyanopyrazin-2-yl)-3′-fluoro-N-(2-hydroxyethyl)-4-(trifluoromethyl)biphenyl-2-sulfonamide], the IC50 in test [1] (setting [3]) stood at 52.3 nM. In test [2] (wild type FLAP, HTRF format), this compound registered an inhibitory constant (Ki) of 1.9 nM. For `CC(C)(C)NS(=O)(=O)c1ccccc1-c1cnc(-c2cnc(N)nc2)c(F)c1` [Example 675, 2-[6-(2-Aminopyrimidin-5-yl)-5-fluoropyridin-3-yl]-N-tert-butylbenzenesulfonamide], the IC50 in test [1] (setting [3]) worked out at 55.1 nM. The compound also came in with a Ki in test [2] (wild type FLAP, HTRF format) of 0.7 nM. For `N#Cc1cc(Oc2ccccc2-c2ccc(-c3cnc(N)nc3)c(F)c2)ccn1` [Example 538, 4-{[4′-(2-Aminopyrimidin-5-yl)-3′-fluorobiphenyl-2-yl]oxy}pyridine-2-carbonitrile], the half-inhibitory concentration (IC50) in test [1] (setting [3]) is 330 nM.

Source of the values: US9079866B2, “Flap modulators” (JANSSEN PHARMACEUTICA NV, priority 2013, dated 2015).
